Measured values as given in US20040121029A1, “Antiulcer herbal composition(s)” (Council of Scientific & Industrial Research, priority 2002, published 2004).
Marks after values point to notes of the source that are not given here.

Legend:
[1] = tested on: pylorus ligation (PL) - induced gastric ulcers; experiment: Pylorus ligation (PL) - induced ulcers in rats; format: in vivo; conditions: dose 50
Description: 4. Pylorus ligated induced ulcers: Animals were anaesthetized using pentobarbitione (35 mg/kg, i.p.), the abdomen was opened and pylorus ligation was done without causing any damage to its blood supply. The stomach was replaced carefully and the abdomen wall was closed in 2 layers with interrupted sutures. The animals were deprived of water during postoperative period. After 4 hours stomach were dissected out and contents were collected and ulcer index was calculated.

[2] = tested on: cold restraint stress (CRS) - induced gastric ulcers; experiment: Cold restraint stress (CRS) - induced ulcers in rats; format: in vivo; conditions: dose 50
Description: 3. Cold restraint stress—induced ulcers: Rats were strapped on a wooden plank and kept them at 4-6° C. for 2 hours. The animals were then sacrificed by cervical dislocation and ulcers were scored on the dissected stomach.

SMILES: CNC(=C[N+](=O)[O-])NCCSCc1ccc(CN(C)C)o1 [Ranitidine]
- PL - induced ulcers % Curative Ratio [1]: 64.82%
- PL - induced ulcers Ulcer Index ([1]; mean ± SEM, six rats): 5.1 ± 1.3^b
- CRS - induced ulcers % Curative Ratio [2]: 79.68%
- CRS - induced ulcers Ulcer Index ([2]; mean ± SEM, six rats): 5.2 ± 1.1^c
